Results as given in patent EP4793271A1, “NEUROPROTECTIVE AGENT” (National Center of Neurology and Psychiatry, priority 2023, dated 2025).

Assays:
[1] = test system: primary cultured cells of mouse fetus-derived dorsal root ganglia (DRGs); experiment: Suppression of axonal degeneration after axotomy in DRG explant culture; type: cell-based; conditions: minimum concentration at which axonal degeneration was suppressed (DI 0.3 or less), 24 hours after axotomy; for minimal effective concentration: Mus musculus, read-out: Evaluation on protection against degeneration
Procedure, shortened: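 Embryonic ICR mouse DRG explants were cultured 7–8 days in nicotinamide-free neuronal medium with NGF, then axotomized by removing the cell bodies. Compound (100 pM–10 µM final, 0.1% DMSO) was added within 30 min, and neurites were imaged 24 h later. The result is the lowest concentration giving degeneration index ≤0.3.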

[2] = biological target: T1, nicotinamide phosphoribosyl transferase (NAMPT) (Homo sapiens, UniProt P43490); experiment: NAMPT activity measurement (NMN fluorescence detection); type: biochemical; conditions: NAMPT recombinant protein, 10 µM Nam; for IC50: read-out: Evaluation on NAMPT inhibitory
T1 construct: purchased Medical & Biological Laboratories Co., Ltd. (MBL)
Procedure: The compound of the present invention was evaluated for the ability to influence the activity of nicotinamide phosphoribosyl transferase (NAMPT) which is an enzyme that metabolizes nicotinamide (Nam), not the target SARM1.
The enzymatic reaction of NAMPT was carried out by adding NAMPT recombinant protein (manufactured by Medical & Biological Laboratories Co., Ltd. (MBL)) to a reaction solution containing the substrate Nam, phosphoribosylpyrophosphate (PRPP), ATP, and the like (composition: […] (pH = 7.4), 2 µM ATP, 0.5 µM PRPP, 0.02% BSA, 2 µM DTT, 1.2 µM MgCl2, and 10 µM Nam). The amount of the reaction product NMN was detected by detecting the fluorescent signal of a fluorescent substance obtained through the reaction of 2-acetylbenzofuran with NMN using SpectraMax M2 (Molecular Devices) (excitation: 421 nm, fluorescence: 480 nm) (Moriya et al, Chemical Communications 2013, 49 11500). The test compound was added at final concentrations of 10 µM, 3 µM, 1 µM, 300 nM, 100 nM, 30 nM, 10 nM, and 3 nM to the NMN synthesis reaction system described above. The NMN-derived fluorescent signal was normalized against a control group and plotted as the function of the test compound concentrations, and the compound was evaluated for its NAMPT inhibitory effect by calculating IC50.
The IC50 value was evaluated as ∘ for ≥1 µM and as Δ for ≥0.1 µM.

hSARM1 = biological target: T2, hSARM1 (Homo sapiens, UniProt Q6SZW1); experiment: Human SARM1 activity measurement in HEK293 cells transiently transfected with ΔN-hSARM1 (PC6 fluorescent probe); type: cell-based; design: expressed in transfected cells; host or cells: HEK293, pcDNA3 expression vector; conditions: inhibition rate; compound 30 µM; PC6 50 µM; HEK293 cells expressing ΔN-hSARM1; approximately 48 hours from transfection; read-out: Evaluation on hSARM1 inhibitory
T2 sequence (Q6SZW1 28-724): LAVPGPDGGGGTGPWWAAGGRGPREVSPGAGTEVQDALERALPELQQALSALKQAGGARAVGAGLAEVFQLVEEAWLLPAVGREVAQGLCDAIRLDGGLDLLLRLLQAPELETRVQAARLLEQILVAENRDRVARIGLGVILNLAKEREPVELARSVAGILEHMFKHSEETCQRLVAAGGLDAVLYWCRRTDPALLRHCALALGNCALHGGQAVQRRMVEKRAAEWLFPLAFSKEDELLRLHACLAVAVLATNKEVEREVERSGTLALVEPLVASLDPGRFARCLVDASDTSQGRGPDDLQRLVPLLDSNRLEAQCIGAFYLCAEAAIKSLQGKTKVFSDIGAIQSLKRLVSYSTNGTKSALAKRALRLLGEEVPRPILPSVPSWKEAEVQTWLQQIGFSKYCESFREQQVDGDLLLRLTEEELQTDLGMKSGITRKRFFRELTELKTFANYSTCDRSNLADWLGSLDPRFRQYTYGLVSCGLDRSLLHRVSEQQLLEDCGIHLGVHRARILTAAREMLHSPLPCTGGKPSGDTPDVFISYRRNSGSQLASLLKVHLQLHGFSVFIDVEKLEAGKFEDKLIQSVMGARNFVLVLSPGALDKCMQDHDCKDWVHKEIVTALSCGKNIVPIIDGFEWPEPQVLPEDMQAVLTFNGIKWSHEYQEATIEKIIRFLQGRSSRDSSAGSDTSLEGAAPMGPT
Procedure, shortened: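 HEK293 cells in nicotinamide-free DMEM with 5 μM nicotinamide, transiently transfected with mitochondrial-targeting-deleted ΔN-hSARM1; PC6 base-exchange fluorescent probe (50 μM) plus compound (30 μM) added ~8 h post-transfection. Fluorescence (ex 405/em 525 nm) read ~48 h from transfection; inhibition % versus transfected DMSO control, untransfected background subtracted.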

T1 sequence (P43490 whole entry, species assumed): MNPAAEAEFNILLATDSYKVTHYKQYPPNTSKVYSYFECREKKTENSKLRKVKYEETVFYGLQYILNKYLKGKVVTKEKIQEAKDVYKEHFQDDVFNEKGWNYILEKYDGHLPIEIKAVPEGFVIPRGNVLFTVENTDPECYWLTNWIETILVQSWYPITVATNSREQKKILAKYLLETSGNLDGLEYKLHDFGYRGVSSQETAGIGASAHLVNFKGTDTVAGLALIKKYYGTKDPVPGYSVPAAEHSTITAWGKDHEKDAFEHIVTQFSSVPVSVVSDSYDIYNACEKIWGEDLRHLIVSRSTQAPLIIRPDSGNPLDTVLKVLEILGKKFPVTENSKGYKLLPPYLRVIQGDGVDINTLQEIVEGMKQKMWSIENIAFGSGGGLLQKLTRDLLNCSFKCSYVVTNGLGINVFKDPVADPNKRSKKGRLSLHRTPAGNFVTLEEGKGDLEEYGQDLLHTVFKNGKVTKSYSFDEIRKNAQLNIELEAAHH

SMILES | minimal effective concentration [1] [µM] | Evaluation on NAMPT inhibitory [2] | inhibition at 30 µM (hSARM1) [%] | IC50 [2] [µM] | Evaluation on protection against degeneration [1]
O=C(NCc1ccc(NC(=O)c2ccccc2)nc1)c1cnc2ccccc2c1 [Compound 140] | 0.1 to 1 | ○ | > 10 | – | –
Cc1ccc(CC(=O)Nc2ccc(CNC(=O)c3cccnc3)cn2)cc1 [Compound 143] | ≤ 0.01 | – | > 75 | ≥ 0.1 | –
O=C(Cc1ccc(F)cc1)Nc1ccc(CNC(=O)c2cccnc2)cn1 [Compound 144] | ≤ 0.01 | – | > 75 | ≥ 0.1 | –
O=C(NCc1ccc(CNC(=O)c2cccnc2)nc1)c1cccnc1 [Compound 146] | 0.01 to 0.1 | ○ | > 50 | – | –
O=C(NCc1cccc(CNC(=O)c2cccnc2)n1)c1ccccc1 [Compound 149] | 0.1 to 1 | ○ | > 25 | – | –
O=C(NCc1cccc(CNC(=O)c2cccnc2)n1)c1cccnc1 [Compound 150] | 0.1 to 1 | ○ | > 25 | – | –
O=C(NCc1cccc(CNC(=O)c2cccnc2)n1)c1ccncc1 [Compound 151] | 0.1 to 1 | ○ | > 25 | – | –
O=C(NCc1ccc(CNC(=O)c2ccccc2)nc1)c1cccnc1 [Compound 153] | 0.01 to 0.1 | ○ | > 75 | – | –
N#Cc1ccc(CC(=O)Nc2ccc(CNC(=O)c3cccnc3)cn2)cc1 [Compound 154] | ≤ 0.01 | – | > 75 | ≥ 0.1 | –
CCCC(=O)Nc1ccc(CNC(=O)c2cccnc2)cn1 [Compound 158] | ≤ 0.01 | ○ | > 25 | – | –
CCCCC(=O)Nc1ccc(CNC(=O)c2cccnc2)cn1 [Compound 159] | ≤ 0.01 | ○ | > 50 | – | –
CCCCCC(=O)Nc1ccc(CNC(=O)c2cccnc2)cn1 [Compound 160] | ≤ 0.01 | – | > 75 | ≥ 0.1 | –
CCC(C)C(=O)Nc1ccc(CNC(=O)c2cccnc2)cn1 (stereo not drawn) [Compound 161] | ≤ 0.01 | ○ | > 10 | – | –
CC(C)CC(=O)Nc1ccc(CNC(=O)c2cccnc2)cn1 [Compound 162] | ≤ 0.01 | ○ | > 25 | – | –
CCC(CC)C(=O)Nc1ccc(CNC(=O)c2cccnc2)cn1 [Compound 163] | – | ○ | > 25 | – | A (A ≤ 0.01 µM)
CC(C)CCC(=O)Nc1ccc(CNC(=O)c2cccnc2)cn1 [Compound 164] | ≤ 0.01 | – | > 75 | ≥ 0.1 | –
CCC(C)CC(=O)Nc1ccc(CNC(=O)c2cccnc2)cn1 (stereo not drawn) [Compound 165] | ≤ 0.01 | ○ | > 75 | – | –
N#Cc1ccc(/C=C/C(=O)Nc2ccc(CNC(=O)c3cccnc3)cn2)cc1 [Compound 166] | ≤ 0.01 | ○ | > 75 | – | –
O=C(/C=C/c1ccc(C(F)(F)F)cc1)Nc1ccc(CNC(=O)c2cccnc2)cn1 [Compound 167] | ≤ 0.01 | ○ | > 75 | – | –

SMILES | minimal effective concentration [1] [µM] | Evaluation on NAMPT inhibitory [2] | inhibition at 30 µM (hSARM1) [%] | IC50 [2] [µM] | Evaluation on protection against degeneration [1]
O=C(/C=C/c1ccc(OC(F)(F)F)cc1)Nc1ccc(CNC(=O)c2cccnc2)cn1 [Compound 168] | ≤ 0.01 | ○ | > 50 | – | –
O=C(CCc1ccc(C(F)(F)F)cc1)Nc1ccc(CNC(=O)c2cccnc2)cn1 [Compound 169] | ≤ 0.01 | ○ | > 75 | – | –
CCCCC(=O)N(C(=O)CCCC)c1ccc(CNC(=O)c2cccnc2)cn1 [Compound 171] | ≤ 0.01 | ○ | > 50 | – | –
CC(C)C(=O)N(C(=O)C(C)C)c1ccc(CNC(=O)c2cccnc2)cn1 [Compound 172] | ≤ 0.01 | ○ | > 10 | – | –
N#Cc1ccc(CCC(=O)Nc2ccc(CNC(=O)c3cccnc3)cn2)cc1 [Compound 173] | 0.01 to 0.1 | ○ | > 75 | – | –
N#Cc1ccc(OCC(=O)Nc2ccc(CNC(=O)c3cccnc3)cn2)cc1 [Compound 174] | 0.01 to 0.1 | – | > 75 | ≥ 0.1 | –
O=C(COc1cccc(C(F)(F)F)c1)Nc1ccc(CNC(=O)c2cccnc2)cn1 [Compound 175] | 0.01 to 0.1 | – | > 75 | ≥ 0.1 | –
O=C(COc1ccc(C(F)(F)F)cc1)Nc1ccc(CNC(=O)c2cccnc2)cn1 [Compound 176] | 0.01 to 0.1 | – | > 75 | ≥ 0.1 | –
O=C(Cc1ccc(OCc2ccccc2)cc1)Nc1ccc(CNC(=O)c2cccnc2)cn1 [Compound 177] | 0.01 to 0.1 | – | > 75 | ≥ 0.1 | –
O=C(COc1ccc(OCc2ccccc2)cc1)Nc1ccc(CNC(=O)c2cccnc2)cn1 [Compound 178] | 0.01 to 0.1 | – | > 75 | ≥ 0.1 | –
Cc1ccc(/C=C/C(=O)Nc2ccc(CNC(=O)c3cccnc3)cn2)cc1 [Compound 179] | ≤ 0.01 | ○ | > 75 | – | –
COc1ccc(/C=C/C(=O)Nc2ccc(CNC(=O)c3cccnc3)cn2)cc1 [Compound 180] | ≤ 0.01 | – | > 75 | ≥ 0.1 | –
CC(C)(C)CC(=O)Nc1ccc(CNC(=O)c2cccnc2)cn1 [Compound 182] | ≤ 0.01 | – | > 75 | ≥ 0.1 | –
CC#CC(=O)Nc1ccc(CNC(=O)c2cccnc2)cn1 [Compound 183] | 0.01 to 0.1 | – | > 50 | ≥ 0.1 | –
O=C(C#Cc1ccccc1)Nc1ccc(CNC(=O)c2cccnc2)cn1 [Compound 184] | 0.01 to 0.1 | ○ | > 50 | – | –
O=C(NCCCOCCOCCCNC(=O)c1cnc2ccccc2c1)c1cccnc1 [Compound 185] | 0.1 to 1 | ○ | > 25 | – | –
O=C(NCCCOCCOCCCNC(=O)c1cccnc1)c1ccccc1 [Compound 186] | 0.01 to 0.1 | ○ | > 25 | – | –
O=C(NCCCOCCOCCCNC(=O)c1ccc2ccccc2c1)c1cccnc1 [Compound 187] | – | ○ | > 25 | – | C (0.1 µM < C ≤ 1 µM)
